The results in this text go back to patent US11357779B2 (G1 Therapeutics, Inc., priority 2018, dated 2022).

Series [1] is described as follows: Crystallization and slurry experiments, morphic forms of Compound II (XRPD, characterization). In kind it is physicochemical. To be noted: for Time point (1 day) XRPD: Stirring at RT. As to the method:
Eleven unique XRPD patterns (Form A-Form K) of Compound II were obtained from crystallization and slurry experiments using various solvents.
Forms A, B, and D were evaluated as solid state forms.

Series [2] deals with HR+, HER2− locally advanced or metastatic breast cancer. The experiment in a line: Clinical efficacy of Form B of Compound II plus fulvestrant, RECIST Version 1.1. To be noted: FIG. 3, FIG. 4; with fulvestrant. In kind it is in vivo, human. As to the method:
Target lesions in subjects from Example 1 were evaluated every 8 weeks using the RECIST, Version 1.1 criteria (Eisenhower 2009) as follows: • Complete Response (CR): Disappearance of all target lesions. Any pathological lymph nodes (whether target or nontarget) must have reduction in short axis to <10 mm. • Partial Response (PR): At least a 30% decrease in the sum of diameters of target lesions, taking as reference the baseline sum of diameters. • Progressive Disease (PD): At least a 20% increase in the sum of diameters of target lesions, taking as reference the smallest sum on study (this includes the baseline sum if that is the smallest on study). […] A response category of not evaluable (NE) was used when there was inadequate information to otherwise categorize the response status. • Non-target lesions were evaluated using the following criteria: • Complete Response (CR): Disappearance of all nontarget lesions and normalization of tumor marker level. […]
The overall response (OR) was determined by evaluation of the combination of target and nontarget lesion responses as outlined in Table 94.
The clinical efficacy of the combination of Form B of Compound II and fulvestrant for QD dosing for the subjects from Example 1 was evaluated using the above criteria. […]

With `CC(C)N1CCN(c2ccc(Nc3ncc4cc5n(c4n3)C3(CCCCC3)CNC5=O)nc2)CC1` [Compound II, 2′-((5-(4-isopropylpiperazin-1-yl)pyridin-2-yl)amino)-7′,8′-dihydro-6′H-spiro[cyclohexane-1,9′-pyrazino[1′,2′:1,5]pyrrolo[2,3-d]pyrimidin]-6′-one], the XRPD entry in series [1] (MeOH/0.5 mL, 60.0° C., Fast Cooling (4° C.), anti solvent EtOAc/0.2 mL, ppt/filter) is “Weak crystalline”; in series [1] (MeOH/0.5 mL, 60.0° C., Fast Cooling (4° C.), anti solvent n-BuOH/5.0 mL, ppt/filter), “Weak crystalline”; in series [1] (MeOH/0.5 mL, 60.0° C., Fast Cooling (4° C.), anti solvent n-PrOH/5.0 mL, ppt/filter) it was “Weak crystalline”; in series [1] (MeOH/0.5 mL, 60.0° C., Slow Cooling (20° C./hr), anti solvent Acetone/0.5 mL, ppt/filter), “Weak crystalline”; in series [1] (MeOH/0.5 mL, 60.0° C., Slow Cooling (20° C./hr), anti solvent EtOH/5.0 mL, ppt/filter), “Weak crystalline”; in series [1] (MeOH/0.5 mL, 60.0° C., Slow Cooling (20° C./hr), anti solvent MIBK/0.1 mL, ppt/filter (first listing)) it was “Weak crystalline”. Also, the XRPD result in series [1] (MeOH/0.5 mL, 60.0° C., Slow Cooling (20° C./hr), anti solvent MeCN/2.5 mL, ppt/filter) is listed as “Weak crystalline”; in series [1] (MeOH/0.5 mL, 60.0° C., Slow Cooling (20° C./hr), anti solvent THF/0.5 mL, ppt/filter), “Weak crystalline”; in series [1] (MeOH/0.5 mL, 60.0° C., Slow Cooling (20° C./hr), anti solvent Toluene/1.5 mL, ppt/filter (second listing)), “Weak crystalline”; in series [1] (MeOH/0.5 mL, 60.0° C., Slow Cooling (20° C./hr), anti solvent n-BuOH/5.0 mL, ppt/filter), “Weak crystalline”; in series [1] (MeOH/0.5 mL, 60.0° C., Slow Cooling (20° C./hr), anti solvent n-PrOH/5.0 mL, ppt/filter), “Weak crystalline”; in series [1] (Water/0.5 mL, 60.0° C., Fast Cooling (4° C.), anti solvent EtOH/5.0 mL, Clear/Evap.), “Weak crystalline”. Further, the XRPD result is recorded as “Weak crystalline” in series [1] (Water/0.5 mL, 60.0° C., Fast Cooling (4° C.), anti solvent MeCN/5.0 mL, ppt/filter); “Weak crystalline” in series [1] (Water/0.5 mL, 60.0° C., Fast Cooling (4° C.), anti solvent THF/3.0 mL, ppt/filter); “Weak crystalline” in series [1] (Water/0.5 mL, 60.0° C., Fast Cooling (4° C.), anti solvent n-PrOH/5.0 mL, Clear/Evap.); “Weak crystalline” in series [1] (Water/0.5 mL, 60.0° C., Slow Cooling (20° C./hr), anti solvent EtOH/5.0 mL, Clear/Evap.); “Weak” in series [1] (single solvent crystallization: 1-BuOH 4.0 mL, 60° C., Fast Cooling (4° C.), ppt/filter); “Weak” in series [1] (single solvent crystallization: 1-PrOH 4.0 mL, 60° C., Fast Cooling (4° C.), ppt/filter). Further, the XRPD result in series [1] (single solvent crystallization: 1-PrOH 4.0 mL, 60° C., Slow (20° C./hr), ppt/filter) is “Weak”; in series [1] (single solvent crystallization: MeOH 0.5 mL, 60° C., Fast Cooling (4° C.), ppt/filter), “Weak”; in series [1] (single solvent crystallization: Water 2.0 mL, 60° C., Fast Cooling (4° C.), Turbid/Evap.), “Weak”; in series [1] (single solvent crystallization: Water 2.0 mL, 60° C., Slow (20° C./hr), Turbid/Evap.), “Weak”. Moreover, the “Time point (1 day) XRPD” value in series [1] (slurry in 2-MeTHF 1.0 mL) was “Weak”; in series [1] (slurry in IPAc 1.0 mL), “A with extra”; in series [1] (slurry in MEK 1.0 mL), “Weak”; in series [1] (slurry in THF 1.0 mL) it was “Weak”.
For `CC(C)N1CCN(c2ccc(Nc3ncc4cc5n(c4n3)C3(CCCCC3)CNC5=O)nc2)CC1` [Form B], the “anti-tumor activity (waterfall and spider plots, target lesions)” value in series [2] is “effective anti-tumor activity”.
